Assay results published in BindingDB's records for patent US12037345 (Taiho Pharmaceutical, 2024).

Molecular target: T1, Tyrosine-protein phosphatase non-receptor type 11 (Homo sapiens, UniProt Q06124)
T1 sequence (Q06124 whole entry): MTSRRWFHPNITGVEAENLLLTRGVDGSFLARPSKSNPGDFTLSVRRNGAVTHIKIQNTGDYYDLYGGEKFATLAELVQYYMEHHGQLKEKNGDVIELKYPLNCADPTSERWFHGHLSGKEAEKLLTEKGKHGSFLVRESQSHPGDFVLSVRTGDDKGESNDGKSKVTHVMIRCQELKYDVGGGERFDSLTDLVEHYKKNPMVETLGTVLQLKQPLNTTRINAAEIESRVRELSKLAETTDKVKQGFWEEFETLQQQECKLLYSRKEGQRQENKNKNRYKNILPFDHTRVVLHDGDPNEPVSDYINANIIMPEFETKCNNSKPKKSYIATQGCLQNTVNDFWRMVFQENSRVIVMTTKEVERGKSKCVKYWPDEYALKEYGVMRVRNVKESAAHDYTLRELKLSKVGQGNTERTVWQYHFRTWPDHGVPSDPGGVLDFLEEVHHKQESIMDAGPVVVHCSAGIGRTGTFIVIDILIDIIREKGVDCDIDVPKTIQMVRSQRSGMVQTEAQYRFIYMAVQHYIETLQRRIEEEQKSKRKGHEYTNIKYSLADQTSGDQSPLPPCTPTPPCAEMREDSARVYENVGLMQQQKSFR
Assay: SHP2 Biochemical Assay
Protocol: SHP2 activity was monitored by measuring the conversion of the surrogate substrate 6,8-difluoromethylumbelliferyl phosphate (DiFMUP) to the fluorescent product, 6,8-difluoromethylumbelliferone (DiFMU).SHP2 was pre-incubated with test compounds and the activating peptide pIRS1 (H2N-LN(pY)IDLDLV-(PEG)8-LST(pY)ASINFQK-amide) for 30 min, prior to addition of the 6,8-difluoromethylumbelliferyl phosphate (DiFMUP), (Thermo Fisher D6567). Final assay concentrations were 10 pM SHP2, […] pIRS1 peptide, 50 μM DiFMUP, 25 mM Bis-Tris propane, pH 7.0, 150 mM NaCl, 0.05% (v/v) Tween-20, 0.5 mM TCEP and 5% (v/v) DMSO. Rates of reaction were then measured over 30 min by monitoring fluorescence on a BMG Pherastar reader at excitation 360 nm/emission 450 nm. IC50 values were calculated in singlicate from the normalized dose-response plots using four parameter logistic curve fit. The Experiment for each compound was carried out in one time or multiple times, and the IC50 values were shown as a single value (for a compound measured in a single experiment) or an average value (for a compound measured in multiple experiments).

Cn1c(N2[C@H]3CC[C@@H]2[C@H](N)C3)nc2[nH]cc(-c3ccc4ncsc4c3Cl)c2c1=O [US12037345, Example 101]
IC50: 1.5 nM
